According to article PMC7579840 (Journal of medicinal chemistry, 2019):
Like-named read-outs stand apart in the source and are kept apart here. Each block holds one compound with its values, some of them ahead of it.

Columns and labels:
panel of 54 kinases [1] = test: Overall selectivity in kinase panel; conditions: 5 μM
[2] = target: CK2α2β2 (peptide substrate) (Homo sapiens, UniProt P68400); test: Radiometric kinase assay with CK2α2β2, peptide substrate; type: biochemical; conditions: peptide 29 and peptide M substrates (Figure 2B)
CK2α2β2 (peptide substrate), sequence (P68400 whole entry): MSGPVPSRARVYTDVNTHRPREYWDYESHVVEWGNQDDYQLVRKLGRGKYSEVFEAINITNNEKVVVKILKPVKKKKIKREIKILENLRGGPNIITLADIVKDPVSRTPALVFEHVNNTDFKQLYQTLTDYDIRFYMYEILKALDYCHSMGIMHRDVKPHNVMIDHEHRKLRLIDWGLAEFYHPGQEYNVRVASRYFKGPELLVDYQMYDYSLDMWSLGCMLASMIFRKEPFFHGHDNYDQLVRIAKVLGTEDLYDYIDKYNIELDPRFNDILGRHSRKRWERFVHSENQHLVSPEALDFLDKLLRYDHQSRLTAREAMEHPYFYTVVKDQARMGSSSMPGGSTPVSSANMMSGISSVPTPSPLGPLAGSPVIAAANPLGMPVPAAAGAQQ
CK2α2β2 (peptide substrate), sequence (P67870 whole entry partner): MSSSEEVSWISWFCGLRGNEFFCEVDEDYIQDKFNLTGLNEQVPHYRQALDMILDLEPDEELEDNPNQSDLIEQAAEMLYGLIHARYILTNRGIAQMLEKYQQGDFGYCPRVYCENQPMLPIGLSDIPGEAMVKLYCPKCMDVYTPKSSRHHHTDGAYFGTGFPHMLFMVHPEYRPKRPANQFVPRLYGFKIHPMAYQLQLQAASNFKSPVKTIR

Dyrk1A = Dyrk1A (Homo sapiens, UniProt Q13627); test: Kinase selectivity panel; conditions: 5 μM 27
HeLa pEGFP-CK2α cells = test: Subcellular localization of EGFP-CK2α, cell imaging; type: cell-based; conditions: 12 h
human CK2α1−335 = target: T1, human CK2α1−335 (Homo sapiens, UniProt P68400); test: Isothermal titration calorimetry; type: binding; conditions: ITC
T1 sequence (P68400 1-335): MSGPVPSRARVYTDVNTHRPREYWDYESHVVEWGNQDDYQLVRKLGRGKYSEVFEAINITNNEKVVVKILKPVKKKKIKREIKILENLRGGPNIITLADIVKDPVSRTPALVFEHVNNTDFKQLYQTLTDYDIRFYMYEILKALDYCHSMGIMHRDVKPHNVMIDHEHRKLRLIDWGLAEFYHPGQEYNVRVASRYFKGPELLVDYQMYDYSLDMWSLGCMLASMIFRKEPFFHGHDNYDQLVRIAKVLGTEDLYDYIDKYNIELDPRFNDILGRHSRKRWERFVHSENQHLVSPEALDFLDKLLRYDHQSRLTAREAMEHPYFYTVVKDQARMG

CK2α = CK2α (Homo sapiens, UniProt P68400); conditions: previous hit compounds included for comparison; cited from earlier work
CK2α, sequence (P68400 whole entry): as the sequence (P68400 whole entry) above

panel of 54 kinases [3] = conditions: overall selectivity; cited from earlier work

Gini coefficient (panel of 54 kinases [1]): 0.78 | inhibition of holoenzyme complex compared with CK2α [2]: same potency | inhibition of Dyrk1A (Dyrk1A): only weakly inhibited | TΔS (human CK2α1−335): 2.53 ± 0.29 kcal/mol
SMILES: O=C(O)c1ccc(Nc2nc(-c3ccc4ccccc4c3)cs2)cc1O [compound 27, 2-Hydroxy-4-((4-(naphthalen-2-yl)thiazol-2-yl)amino)benzoic acid]
subcellular localization of EGFP-CK2α (HeLa pEGFP-CK2α cells; 15 μM): nucleolar localization pattern of EGFP-CK2α was mostly retained

SMILES: O=C(O)c1cccc(Nc2nc(-c3cccc([N+](=O)[O-])c3)cs2)c1 [compound 1, 3-((4-(3-nitrophenyl)thiazol-2-yl)amino)benzoic acid]
IC50 (CK2α): 30 µM

SMILES: O=C(O)c1ccc2c(c1)nc(Nc1cccc(Cl)c1)c1ccncc12 [CX-4945, 5-(3-chlorophenylamino)benzo[c][2,6]naphthyridine-8-carboxylic acid, reference compound]
subcellular localization of EGFP-CK2α (HeLa pEGFP-CK2α cells; 8 μM): significant translocation of EGFP-CK2α from the nucleoli to the nuclear matrix and the cytoplasm compartments | Gini coefficient (panel of 54 kinases [3]): 0.67
